# Laboratory results published in publication PMC8129988 (Inorganic Chemistry Frontiers, 2021).
# Tests used:
# [1] = serum stability in fetal calf serum (HPLC-MS); type: in vitro ADME; conditions: 37 °C
# Method: Therefore, we only investigated the stability of the novel complexes in fetal calf serum (FCS). As reference again Co(acac)2LEGFR[26] was included. The complexes were dissolved in 50 mM phosphate puffer and mixed 1 : 10 with fetal calf serum (FCS; buffered with 150 mM phosphate buffer to keep a stable pH of 7.4) to a final concentration of 50 μM. The samples were incubated at 37 °C and after 0, 2, 4, 6, 24 and 26 h extracted with acetonitrile and measured by HPLC-MS. […] This indeed confirms, that by avoiding the direct attachment of the ethylenediamine moiety to an aromatic ring system, complexes with much higher stability can be generated. Since no distinct difference in stability between Co(acac)2LPon and Co(Meacac)2LPon within 26 h could be observed, measurements were repeated up to 72 h.
# For serum stability measurements, 135 μL FCS, buffered with 150 mM phosphate (Na2HPO4/NaH2PO4) to maintain a pH value of 7.4, were mixed with 15 μL of a 500 μM stock solution of the respective complex in 50 mM phosphate buffer to reach a final concentration of 50 μM. The samples were incubated at 37 °C. At different time points to 20 μL serum 40 μL of ACN were added. After vigorously shaking for 2 min the suspension was centrifuged at 6000 rpm for 10 min. The supernatant was taken with a syringe and directly measured via HPLC-MS. The samples were analyzed on an Agilent 1260 Infinity system using a Waters Atlantis T3 column (150 mm × 4.6 mm) coupled to a Bruker Amazon SL ESI-IT mass spectrometer. Water and acetonitrile (both containing 0.1% formic acid) were used as eluents with a gradient of 1–99% acetonitrile within 29 min.
# [2] = tested on: p-ERK1/2 and p-S6 in K-562 cells; test: western blot of downstream signalling, 12 h; type: cell-based, human; conditions: hypoxic conditions, K-562, 12 h
# Method: Fig. 10 Impact of the cobalt(III) complexes on the ERK1/2 and S6 under normoxic and hypoxic conditions. K-562 cells were treated with the compounds, after 12 h cell lysates were prepared and protein expression as well as phosphorylation levels of downstream pathways (p-ERK1/2 and p-S6) analyzed by western blotting. One representative experiment out of three is shown. The ratio of phosphorylated to total protein is given between the respective lanes.
# K-562 cells were plated (5 × 10^5 cells per well) in 6-well plates and allowed to recover for 24 h. Subsequently, the cells were treated with the drugs in different concentrations. After 12 h cells were harvested, proteins were isolated, resolved by sodium dodecyl sulfate polyacrylamide gel electrophoresis (SDS/PAGE), and transferred onto a polyvinylidene difluoride membrane for western blotting. The following antibodies were used: ERK1/2 (p44/42) rabbit monoclonal antibody (mAb) (137F5, #4695), phospho-ERK1/2 rabbit mAb (Thr202/Tyr204) (20G11, #4376), phospho-S6 rabbit pAb (Ser240/244, #2215) (Cell Signaling Technology, Beverly, MA, USA), S6 mouse mAb (C-8. #sc-74459) (Santa Cruz Biotechnology, TX, USA) and β-actin mouse mAb (#A5441, Sigma). All primary antibodies were used in 1 : 1000 dilutions (in Tris-buffered saline containing 0.1% Tween20 (TBST) + 3% bovine serum albumin (BSA)). Secondary goat anti-mouse-IgG (Fc specific)-peroxidase antibody (#A0168, Sigma) and horseradish peroxidase(HRP)-labeled mouse anti-rabbit IgG (#sc-2357, Santa Cruz Biotechnology) were used at working dilutions of 1 : 10 000 (in TBST + 1% BSA).
# [3] = tested on: BCR-ABL-driven K-562 xenografts; test: K-562 xenograft experiment; type: in vivo, C.B.17/SCID mice; conditions: 10 mg kg^-1 i.p., three times a week for two weeks
# Method: (§1) Based on this promising in vitro data, the antitumor activity of our novel cobalt(III) complexes Co(acac)2LPon and Co(Meacac)2LPon was evaluated in xenograft mouse models. As a first in vivo experiment, BCR-ABL-driven K-562 cells were injected subcutaneously (s.c.) and treated intraperitoneally (i.p.) with the test compounds at 10 mg kg^−1 or the respective amount of solvent three times a week, for two weeks. Treatment with our novel derivatives was well tolerated and even after repeated i.p. applications no substantial body weight loss was observed (Fig. S13A ^†). […] Consequently, anticancer activity of Co(acac)2LPon was also investigated against FGFR3-driven UM-UC-14 xenografts using the identical treatment regime.
# (§2) Fig. 11 In vivo anticancer activity of the investigated cobalt(III) complexes. […] Tumor sizes were evaluated by caliper measurement. […] Statistical significance was calculated by two-way ANOVA with Sidak multiple comparison test with p < 0.05(*); <0.01 (**).
# (§3) Eight-to nine-week-old male C.B.17/SCID mice were bread in-house (originally Harlan) and were kept in pathogen-free conditions and controlled environment with 12 h light–dark cycle. […] Tumor growth was evaluated by daily recording of tumor size by caliper measurement. […]
# [4] = tested on: FGFR3-driven UM-UC-14 xenografts; test: UM-UC-14 xenograft experiment; type: in vivo, C.B.17/SCID mice; conditions: 10 mg kg^-1 i.p., three times a week for two weeks
# Method: as §1, §2, §3
smiles,measurement,setting,value
"CC(=O)C=C(C)[O-].CC(=O)C=C(C)[O-].Cc1ccc(C(=O)Nc2ccc(CNCCN)c(C(F)(F)F)c2)cc1C#Cc1cnc2cccnn12.O=C(O)C(F)(F)F.[Co+3] [Co(acac)2LPon, Bis(2,4-pentanedionato)N-(4-(((2-aminoethyl)amino)methyl)-3-(trifluoromethyl)phenyl)-3-(imidazo[1,2-b]pyridazin-3-ylethynyl)-4-methylbenzamide cobalt(III) 2,2,2-trifluoroacetate]",intact complex remaining in FCS,"[1]; 26 h, pH 7.4, 50 μM",~90%
same,intact compound remaining in FCS,"[1]; 72 h, pH 7.4",~70%
same,activity on S6 phosphorylation compared with ponatinib,[2],equally active as compared to ponatinib
same,tumor growth vs solvent controls,[3],significantly reduced tumor growth
same,body weight,[4],without significant impact on body weight
same,tumor volumes vs control,[4],significant reduction of tumor volumes
